The source of these data is ChEMBL document CHEMBL1147301, “Studies on inhibitors of skin-tumor promotion. Inhibitory effects of triterpenes from Cochlospermum tinctorium on Epstein-Barr virus activation” (J Nat Prod, 1989).

Molecules are shown by their SMILES.

The test system of assay [1] is Raji. Description: Inhibition of EBV-early antigen activation in human Raji cells assessed as early antigen activation at 4 mM. In kind it is cell-based. Also noted: scale not given: the % may be the effect or the level left. The settings on record: human gammaherpesvirus 4.
Assay [2] deals with Raji. Description: Inhibition of 12-O-tetradecanoylphorbol-13-acetate-induced EBV-early antigen activation in human Raji cells assessed as early antigen activation at 4 mM ratio relative to TPA. In kind it is cell-based. Also noted: scale not given: the % may be the effect or the level left. The settings on record: human gammaherpesvirus 4.

Take `CCCC(=O)O`: the Activity worked out at 0.1% in assay [1] and 34.5% in assay [2].
